For one data set, the target named is T1, human mSerRS (Homo sapiens, UniProt Q9NP81).
T1 construct: gene SARS2; aa 31-518, without N-terminal 30 residues; N-terminal GST tag (pGEX-6P1) cut by PreScission protease; expressed in E. coli BL21(DE3); homodimer
T1 sequence (Q9NP81 31-518): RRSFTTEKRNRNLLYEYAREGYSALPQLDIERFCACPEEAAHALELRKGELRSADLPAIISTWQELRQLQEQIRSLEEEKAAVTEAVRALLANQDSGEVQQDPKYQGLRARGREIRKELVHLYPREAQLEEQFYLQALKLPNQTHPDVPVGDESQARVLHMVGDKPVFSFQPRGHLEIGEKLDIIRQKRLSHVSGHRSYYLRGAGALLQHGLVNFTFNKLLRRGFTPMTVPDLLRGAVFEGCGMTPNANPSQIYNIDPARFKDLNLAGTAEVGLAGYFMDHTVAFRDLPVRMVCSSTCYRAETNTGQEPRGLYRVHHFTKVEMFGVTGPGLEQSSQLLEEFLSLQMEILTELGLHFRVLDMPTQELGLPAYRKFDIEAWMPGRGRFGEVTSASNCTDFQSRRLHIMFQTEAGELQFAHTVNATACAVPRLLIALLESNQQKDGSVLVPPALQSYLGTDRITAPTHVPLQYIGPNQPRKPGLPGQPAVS
Briefly: cryo-EM structure, […] Å. Format: binding. To be noted: complex with stabilized mtRNASer(UGA) transcript; both active sites of the dimer occupied; pH 7.0, 7.5 mM MgCl2.

Data set [1] deals with the molecule itself. Briefly: mass photometry; 25 nM mSerRS, 125 nM mtRNASer(UGA), 250 nM SerSA; 20 mM HEPES pH 7.0, 100 mM NaCl, 7.5 mM MgCl2, 1 mM DTT.

Turning to `Nc1ncnc2c1ncn2[C@@H]1O[C@H](COS(=O)(=O)NC(=O)[C@@H](N)CO)[C@@H](O)[C@H]1O` [SerSA, 5’-O-[N-(L-seryl)sulfamoyl] adenosine], on human mSerRS, the “cryo-EM structure, 3.6 Å” value is “Both active sites are occupied by a SerSA ligand”.

B1: human mSerRS (mitochondrial seryl-tRNA synthetase) (enzyme, UniProt Q9NP81 31-518, looked up)
chain: RRSFTTEKRNRNLLYEYAREGYSALPQLDIERFCACPEEAAHALELRKGELRSADLPAIISTWQELRQLQEQIRSLEEEKAAVTEAVRALLANQDSGEVQQDPKYQGLRARGREIRKELVHLYPREAQLEEQFYLQALKLPNQTHPDVPVGDESQARVLHMVGDKPVFSFQPRGHLEIGEKLDIIRQKRLSHVSGHRSYYLRGAGALLQHGLVNFTFNKLLRRGFTPMTVPDLLRGAVFEGCGMTPNANPSQIYNIDPARFKDLNLAGTAEVGLAGYFMDHTVAFRDLPVRMVCSSTCYRAETNTGQEPRGLYRVHHFTKVEMFGVTGPGLEQSSQLLEEFLSLQMEILTELGLHFRVLDMPTQELGLPAYRKFDIEAWMPGRGRFGEVTSASNCTDFQSRRLHIMFQTEAGELQFAHTVNATACAVPRLLIALLESNQQKDGSVLVPPALQSYLGTDRITAPTHVPLQYIGPNQPRKPGLPGQPAVS
notes: also called mt-SerRS; not shown: GST, N-terminal, cleaved
The stoichiometry N is the number of molecules, sites or subunits per partner or assembly. Take B1: the “stoichiometry N” value in data set [1] was determined as 2.

Source of the values: paper PMC10412605 (Nature Communications, 2023).
